According to PubChem BioAssay (NCI):
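Growth conditions: 96-well plates. Treatment: test compound, 48 hours, 5 concentrations. Analysis: linear interpolation between bracketing concentrations; unreached endpoints set to highest concentration. GI50 marks 50% less growth. TGI: total growth inhibition.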

Assays:
Assay in all cases: inhibition of tumour cell growth, NCI panel, 48 h
COLO 205 colon = system: COLO 205 colon
DLD-1 colon = system: DLD-1 colon
DMS 273 small cell lung = system: DMS 273 small cell lung
EKVX NSCLC = system: EKVX NSCLC
NCI-H226 lung = system: NCI-H226 lung
RPMI-8226 leukemia = system: RPMI-8226 leukemia
SK-MEL-5 melanoma = system: SK-MEL-5 melanoma
CAKI-1 renal = system: CAKI-1 renal
HOP-92 NSCLC = system: HOP-92 NSCLC
KM12 colon = system: KM12 colon
MALME-3M melanoma = system: MALME-3M melanoma
OVCAR-3 ovarian = system: OVCAR-3 ovarian
SK-MEL-2 melanoma = system: SK-MEL-2 melanoma
U251 CNS = system: U251 CNS

**Q.** Which TGI (COLO 205 colon) does the source give for `CCN(CC)CCCNC(=O)c1ccccc1Nc1c(Cl)cccc1Cl` here?
**A.** The TGI was 28 µM.

**Q.** What about the TGI (DLD-1 colon) of the same compound?
**A.** Its TGI is 23.8 µM.

**Q.** What about the TGI (DMS 273 small cell lung) of the same compound?
**A.** The TGI was 31.1 µM.

**Q.** What about the TGI (EKVX NSCLC) of the same compound?
**A.** The TGI was 25 µM.

**Q.** What about the TGI (NCI-H226 lung) of the same compound?
**A.** Its TGI is 28.6 µM.

**Q.** What about the TGI (RPMI-8226 leukemia) of the same compound?
**A.** The TGI was 20.5 µM.

**Q.** And the TGI (SK-MEL-5 melanoma)?
**A.** Its TGI is 10.7 µM.

**Q.** For `O=C(N/N=C/c1cc(Cl)cc(Cl)c1[O-])c1ccccc1O.O=C(N/N=C/c1cc(Cl)cc(Cl)c1[O-])c1ccccc1O.[Cu+2]`, which TGI (CAKI-1 renal) is on record?
**A.** The TGI was 1.13 µM.

**Q.** What about the GI50 (COLO 205 colon) of the same compound?
**A.** The GI50 was 0.186 µM.

**Q.** What about the TGI (COLO 205 colon) of the same compound?
**A.** The TGI was 0.348 µM.

**Q.** What about the GI50 (HOP-92 NSCLC) of the same compound?
**A.** The GI50 was 0.224 µM.

**Q.** And the TGI (HOP-92 NSCLC)?
**A.** The TGI was 0.671 µM.

**Q.** What about the GI50 (KM12 colon) of the same compound?
**A.** The GI50 was 0.442 µM.

**Q.** And the TGI (KM12 colon)?
**A.** Its TGI is 1.59 µM.

**Q.** What about the GI50 (MALME-3M melanoma) of the same compound?
**A.** Its GI50 is 0.367 µM.

**Q.** And the TGI (MALME-3M melanoma)?
**A.** The TGI was 1.38 µM.

**Q.** What about the TGI (OVCAR-3 ovarian) of the same compound?
**A.** The TGI was 0.778 µM.

**Q.** And the GI50 (SK-MEL-2 melanoma)?
**A.** The GI50 was 0.746 µM.

**Q.** What about the TGI (SK-MEL-2 melanoma) of the same compound?
**A.** Its TGI is 2.1 µM.

**Q.** What about the TGI (SK-MEL-5 melanoma) of the same compound?
**A.** Its TGI is 0.966 µM.

**Q.** And the TGI (U251 CNS)?
**A.** Its TGI is 1.34 µM.

**Q.** Which results are given for `O=C(N/N=C/c1cc(Cl)cc(Cl)c1[O-])c1ccccc1O.O=C(N/N=C/c1cc(Cl)cc(Cl)c1[O-])c1ccccc1O.[Fe+2]`?
**A.** TGI (CAKI-1 renal): 69.2 µM; GI50 (EKVX NSCLC): 18.1 µM; TGI (EKVX NSCLC): 41.9 µM; GI50 (HOP-92 NSCLC): 3.4 µM; TGI (HOP-92 NSCLC): 8.33 µM; GI50 (KM12 colon): 15.5 µM; TGI (KM12 colon): 41.8 µM; GI50 (MALME-3M melanoma): 22 µM; TGI (MALME-3M melanoma): 61.9 µM; TGI (NCI-H226 lung): 33.5 µM; TGI (OVCAR-3 ovarian): 38.5 µM; GI50 (SK-MEL-2 melanoma): 14.9 µM; TGI (SK-MEL-2 melanoma): 35.5 µM; TGI (U251 CNS): 22.6 µM
